Two compounds from article PMC4723341, “Ribonuclease H/DNA Polymerase HIV-1 Reverse Transcriptase Dual Inhibitor: Mechanistic Studies on the Allosteric Mode of Action of Isatin-Based Compound RMNC6” (PLoS ONE, 2016) can be followed below.

Assay [1] concerns the target T1, HIV-1 RT-associated RNase H activity, wt RT (Human immunodeficiency virus type 1 group M subtype B, UniProt P04585).
T1 construct: The 1:1 ration between the p66/p51 subunits was also verified; made in house; host or cells: E. coli M15
Nature of the assay: biochemical. More on the design: species or system HIV-1 group M subtype B. On the procedure: (§1) HIV RT-associated RNase H activity was measured as described in 100 μL reaction volume containing 50 mM Tris-HCl buffer pH 7.8, 6 mM MgCl2, 1 mM dithiothreitol (DTT), 80 mM KCl, 0.25 μM hybrid RNA/DNA 5'-GAUCUGAGCCUGGGAGCU-Fluorescin-3' (HPLC, dry, QC: Mass Check) (available from Metabion) 5'-Dabcyl-AGCTCCCAGGCTCAGATC-3'(HPLC, dry, QC: Mass Check), increasing concentrations of inhibitors, whose dilution were made in water, and different amount of enzymes according to a linear range of dose-response curve: 20 ng of WT RT; 60 ng K103N RT; 37.5 ng V106A RT; 75 ng V108A RT; 5 ng Y181C RT; 50 ng Y188A RT; 30 ng Y188L RT; 100 ng E224A RT; 37.5 ng P225A RT; 20 ng P226A RT; 18 ng F227A RT; 30 ng L228A RT; 30 ng W229A RT; 10 ng M230A RT; 30 ng G231A RT; 62.5 ng N474A RT; 1 μg Y501A RT; 100 ng A502F RT; 37.5 ng A508V RT; 38 ng HIV-1 group O RT. The reaction mixture was incubated for 1 h at 37°C, stopped by addition of EDTA and products were measured with a multilabel counter plate reader Victor 3 (Perkin Elmer model 1420–051) equipped with filters for 490/528 nm (excitation/emission wavelength)

Assay [2] deals with HIV-1 RT-associated RNase H activity, V108A RT. Nature of the assay: RNase H activity assay, V108A RT. The class given is biochemical, HIV-1 group M subtype B. The settings on record: V108A RT. The method, then:
as §1

Assay [3] has as its target T2, HIV-1 RT-associated RDDP activity, K103N RT (Human immunodeficiency virus type 1 group M subtype B, UniProt P04585, K690N).
T2 construct: The 1:1 ration between the p66/p51 subunits was also verified; made in house; host or cells: E. coli M15
Nature of the assay: RDDP activity assay, K103N RT. The format is biochemical, HIV-1 group M subtype B.

Assay [4] has as its target HIV-1 RT-associated RDDP activity, HIV-1 group O RT (Human immunodeficiency virus type 1 group O, UniProt Q79666). Nature of the assay: RDDP activity assay, HIV-1 group O RT. The class given is biochemical. The settings on record: read-out: IC50 RDDP. From the text:
Recombinant HIV-1 group O RT was expressed and purified as previously described. It was obtained as a heterodimer composed of subunits of 66 and 51 kDa, with a polyhistidine tag at the C-terminus of p66. For this purpose, the RT p66 subunit encoded within a p66RTB expression vector was co-expressed with the HIV-1 protease in E. coli XL-1 Blue, and the obtained heterodimers were then purified by ionic exchange followed by chromatography on Ni2+-nitriloacetic acid agarose. The enzyme was quantified by active site titration before biochemical studies.
RNA-dependent DNA polymerase (RDDP) activity was measured as described in 25 μL volume containing 60 mM Tris-HCl buffer pH 8.1, 8 mM MgCl2, 60 mM KCl, 13 mM DTT, 2.5 μM poly(A)-oligo(dT), 100 μM dTTP, increasing concentrations of inhibitors, whose dilution were made in water, and different amounts of enzymes according to a linear range of dose-response curve: 6 ng wt RT; 30 ng K103N RT; 12 ng V106ART; 19 ng V108A RT; 1.51.5 ng Y181C RT; 45 ng Y188A RT; 15 ng Y188L RT; 30 ng E224A RT; 15 ng P225A RT; 18 ng P226A RT; 23 ng F227A RT; 15 ng L228A RT; 30 ng W229A RT; 30 ng M230A RT; 15 ng G231A RT; 15 ng N474A RT; 15 ng Y501A RT; 15 ng A502F RT; 19 ng A508V RT; 38 ng HIV-1 group O RT. After enzyme addition, the reaction mixture was incubated for 30 min at 37°C and the stopped by addition of EDTA. […]

The target in assay [5] is T3, HIV-1 RT-associated RDDP activity, V106A RT (Human immunodeficiency virus type 1 group M subtype B, UniProt P04585, V693A).
T3 construct: The 1:1 ration between the p66/p51 subunits was also verified; made in house; host or cells: E. coli M15
Nature of the assay: biochemical. More on the design: species or system HIV-1 group M subtype B.

Assay [6] deals with T4, HIV-1 RT-associated RDDP activity, V108A RT (Human immunodeficiency virus type 1 group M subtype B, UniProt P04585, V695A).
T4 construct: The 1:1 ration between the p66/p51 subunits was also verified; made in house; host or cells: E. coli M15
As to the kind of experiment: biochemical. On the set-up: species or system HIV-1 group M subtype B.

Assay [7] deals with T5, HIV-1 RT-associated RDDP activity, Y188A RT (Human immunodeficiency virus type 1 group M subtype B, UniProt P04585, Y775A).
T5 construct: The 1:1 ration between the p66/p51 subunits was also verified; made in house; host or cells: E. coli M15
As to the kind of experiment: biochemical. On the set-up: species or system HIV-1 group M subtype B.

The subject of assay [8] is HIV-1 RT-associated RDDP activity, Y188A RT. As to the kind of experiment: biochemical. As to conditions: Y188A RT. On the set-up: species or system HIV-1 group M subtype B.
Assay [9] concerns the target T6, HIV-1 RT-associated RDDP activity, N474A RT (Human immunodeficiency virus type 1 group M subtype B, UniProt P04585, N1061A).
T6 construct: The 1:1 ration between the p66/p51 subunits was also verified; made in house; host or cells: E. coli M15
Nature of the assay: biochemical. More on the design: species or system HIV-1 group M subtype B.

Assay [10] concerns the target T7, HIV-1 RT-associated RDDP activity, A502F RT (Human immunodeficiency virus type 1 group M subtype B, UniProt P04585, A1089F).
T7 construct: The 1:1 ration between the p66/p51 subunits was also verified; made in house; host or cells: E. coli M15
As to the kind of experiment: biochemical. More on the design: species or system HIV-1 group M subtype B.

The target of assay [11] is T8, HIV-1 RT-associated RDDP activity, A508V RT (Human immunodeficiency virus type 1 group M subtype B, UniProt P04585, A1095V).
T8 construct: The 1:1 ration between the p66/p51 subunits was also verified; made in house; host or cells: E. coli M15
Nature of the assay: biochemical. On the set-up: species or system HIV-1 group M subtype B.

Assay [12] concerns the target DNA polymerase activity of HIV-1 group O RT and wild-type and mutant HIV-1 group M subtype B RTs. As to the kind of experiment: RDDP assays, HIV-1 group O RT and wild-type and mutant HIV-1 group M subtype B RTs together. The format is biochemical. As to conditions: wild-type and mutant (K103N, Y181C, Y188L) group M subtype B RTs, read-out: IC50 RDDP, range over all enzymes.

Molecules are shown by their SMILES.

`CC(C)c1ccc(O)c(=O)c(O)c1` [BTP, β-thujaplicinol, reference compound]: in assay [1], it took 0.19 ± 0.03 µM to reach half-maximal inhibition (IC50). Also, the “Fold of increase of RNase H IC50 with respect to wt RT” value in assay [2] came to 0.9.

Take `N#Cc1ccc(-c2csc(NN=C3C(=O)Nc4ccccc43)n2)cc1` [RMNC6, (Z)-4-(2-(2-(2-oxoindolin-3-ylidene)hydrazinyl)thiazol-4-yl)benzonitrile]: the IC50 – broadly, the concentration that gives 50% inhibition – was 1.3 ± 0.3 µM in [1]; 13.6 ± 1 µM in [3]; 20.1 ± 7.4 µM in assay [4]; 25.1 ± 2.3 µM in assay [5]; 33 ± 5.2 µM in assay [6]; 20.9 ± 4 µM in assay [7]. The IC50 was 12.7 ± 1.7 µM in [9], 17.1 ± 2.1 µM in assay [10], 19.3 ± 2.8 µM in assay [11] and 5.4 to 20.1 µM in [12]. In addition, the “Fold of increase of RDDP IC50 with respect to wt RT” value was 2.5 in assay [5] (V106A RT); 3.4 in [6] (V108A RT); 2.1 in assay [8]; 1.3 in [9] (N474A RT); 1.8 in assay [10] (A502F RT); 2.0 in assay [11] (A508V RT).
